Reference: the NIST ThermoML archive (doi:10.1016/j.jct.2010.01.003)

Details: Liquid; for speed of sound: Single path-length method; for mass density: Vibrating tube method

CCCCCCCCCCCCCCCC [hexadecane]
Details	mass density [kg/m3]	speed of sound [m/s]
290.65 K, 83 kPa	775	1367.2
291.15 K, 83 kPa	774.7	1365.3
291.65 K, 83 kPa	774.4	1363.4
292.15 K, 83 kPa	774	1361.5
292.65 K, 83 kPa	773.6	1359.6
293.15 K, 83 kPa	773.3	1357.7
298.15 K, 83 kPa	769.8	1338.8
303.15 K, 83 kPa	766.4	1320.2
308.15 K, 83 kPa	762.9	1301.7
310 K, 1110 kPa	761.74	–
310 K, 2710 kPa	762.85	–
310 K, 5870 kPa	765.01	–
310 K, 10770 kPa	768.25	–
310 K, 15700 kPa	771.38	–
310 K, 20650 kPa	774.41	–
310 K, 25600 kPa	777.3	–
310 K, 34700 kPa	782.46	–
310 K, 36730 kPa	783.55	–
313.15 K, 83 kPa	759.4	1283.4
318.15 K, 83 kPa	756	1265.3
323.15 K, 83 kPa	752.5	1247.4
328.15 K, 83 kPa	749.1	1229.8
330 K, 1130 kPa	748.39	–
330 K, 2730 kPa	749.66	–
330 K, 5890 kPa	752.03	–
330 K, 10790 kPa	755.61	–
330 K, 15740 kPa	759.04	–
330 K, 20680 kPa	762.35	–
330 K, 25980 kPa	765.74	–
330 K, 36160 kPa	771.9	–
330 K, 38240 kPa	773.11	–
330 K, 45960 kPa	777.44	–
333.15 K, 83 kPa	745.6	1212.3
338.15 K, 83 kPa	742.2	1194.9
343.15 K, 83 kPa	738.7	1177.9
350 K, 1020 kPa	734.55	–
350 K, 2630 kPa	735.94	–
350 K, 5790 kPa	738.58	–
350 K, 10710 kPa	742.54	–
350 K, 15650 kPa	746.27	–
350 K, 20600 kPa	749.88	–
350 K, 25560 kPa	753.33	–
350 K, 36140 kPa	760.24	–
350 K, 40130 kPa	762.7	–
370 K, 1030 kPa	720.83	–
370 K, 2620 kPa	722.35	–
370 K, 5780 kPa	725.3	–
370 K, 10710 kPa	729.65	–
370 K, 15660 kPa	733.76	–
370 K, 20610 kPa	737.69	–
370 K, 25580 kPa	741.44	–
370 K, 34010 kPa	747.41	–
370 K, 41340 kPa	752.26	–
390 K, 1040 kPa	706.5	–
390 K, 2630 kPa	708.23	–
390 K, 5790 kPa	711.5	–
390 K, 10690 kPa	716.31	–
390 K, 15650 kPa	720.83	–
390 K, 20600 kPa	725.12	–
390 K, 25550 kPa	729.18	–
390 K, 35160 kPa	736.52	–
390 K, 39900 kPa	739.91	–
390 K, 44320 kPa	742.94	–
390 K, 46900 kPa	744.61	–
410 K, 1080 kPa	692.52	–
410 K, 2680 kPa	694.47	–
410 K, 5830 kPa	698.12	–
410 K, 10750 kPa	703.47	–
410 K, 15700 kPa	708.47	–
410 K, 20630 kPa	713.12	–
410 K, 25570 kPa	717.52	–
410 K, 30420 kPa	721.61	–
410 K, 37220 kPa	726.98	–
410 K, 44820 kPa	732.63	–
410 K, 50700 kPa	736.75	–
430 K, 970 kPa	677.73	–
430 K, 2590 kPa	679.9	–
430 K, 5770 kPa	684.04	–
430 K, 10650 kPa	689.93	–
430 K, 15590 kPa	695.44	–
430 K, 20560 kPa	700.57	–
430 K, 25530 kPa	705.37	–
430 K, 30420 kPa	709.84	–
430 K, 39590 kPa	717.56	–
430 K, 44320 kPa	721.28	–
430 K, 48490 kPa	724.39	–
450 K, 960 kPa	662.64	–
450 K, 2560 kPa	665.22	–
450 K, 5750 kPa	669.98	–
450 K, 10620 kPa	676.53	–
450 K, 15590 kPa	682.65	–
450 K, 20560 kPa	688.27	–
450 K, 25530 kPa	693.48	–
450 K, 30800 kPa	698.66	–
450 K, 39150 kPa	706.2	–
450 K, 43400 kPa	709.8	–
450 K, 45310 kPa	711.32	–
470 K, 1070 kPa	648.42	–
470 K, 2660 kPa	651.24	–
470 K, 5770 kPa	656.4	–
470 K, 10730 kPa	663.85	–
470 K, 15690 kPa	670.57	–
470 K, 20640 kPa	676.69	–
470 K, 25530 kPa	682.28	–
470 K, 30470 kPa	687.53	–
470 K, 38870 kPa	695.7	–
470 K, 42790 kPa	699.27	–
470 K, 47790 kPa	703.6	–
